Structures are written as SMILES.

Usually inhibition stands for the relative decrease from the control value, in per cent. Low values mean little suppression, high ones strong suppression. Broadly, the IC50 is the concentration at which inhibition is half-maximal.

Common to all, as to assay type: biochemical
One assay deals with T1, MMP-9 (Homo sapiens, UniProt P14780).
T1 construct: from tissue; host or cells: human polymorphonuclear leukocytes (PMN) from whole blood (New York Blood Center), PMA-stimulated supernatant
T1 sequence (P14780 107-707 limits assumed): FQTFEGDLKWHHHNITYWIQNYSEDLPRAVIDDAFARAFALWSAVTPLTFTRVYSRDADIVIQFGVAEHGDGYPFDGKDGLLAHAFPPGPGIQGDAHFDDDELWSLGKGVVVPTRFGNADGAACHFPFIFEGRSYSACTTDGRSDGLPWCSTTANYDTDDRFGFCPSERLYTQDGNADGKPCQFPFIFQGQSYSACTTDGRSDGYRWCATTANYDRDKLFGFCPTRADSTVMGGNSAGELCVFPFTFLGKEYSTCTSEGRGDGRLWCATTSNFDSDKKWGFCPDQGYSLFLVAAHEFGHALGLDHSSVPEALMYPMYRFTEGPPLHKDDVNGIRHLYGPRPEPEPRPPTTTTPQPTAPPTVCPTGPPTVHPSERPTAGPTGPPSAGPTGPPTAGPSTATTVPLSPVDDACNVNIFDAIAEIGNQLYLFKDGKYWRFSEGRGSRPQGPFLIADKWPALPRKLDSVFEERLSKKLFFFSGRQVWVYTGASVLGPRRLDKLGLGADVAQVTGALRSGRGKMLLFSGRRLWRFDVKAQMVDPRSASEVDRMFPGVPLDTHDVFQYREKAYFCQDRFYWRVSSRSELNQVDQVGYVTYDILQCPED
Briefly: Automated MMP Profiling Assay, MMP-9 fluorogenic. As to conditions: for IC50: 96-well automated, P218.

A further assay has as its target T2, MMP-3 (Homo sapiens, UniProt P08254).
T2 construct: Truncated Prostromelysin-257 was expressed in a soluble form in E.coli; made in house; host or cells: E. coli
Description: Automated MMP Profiling Assay, MMP-3 fluorogenic. Particulars: for IC50: 96-well automated, P218. The text has this:
This assay with each invention compound was run with the three enzymes MMP-3, MMP-9 and MMP-2 in parallel as adapted for a 96-well microtitre plate using a Hamilton A® workstation.

Another assay addresses T3, MMP-2 (Homo sapiens, UniProt P08253).
T3 sequence (P08253 110-660): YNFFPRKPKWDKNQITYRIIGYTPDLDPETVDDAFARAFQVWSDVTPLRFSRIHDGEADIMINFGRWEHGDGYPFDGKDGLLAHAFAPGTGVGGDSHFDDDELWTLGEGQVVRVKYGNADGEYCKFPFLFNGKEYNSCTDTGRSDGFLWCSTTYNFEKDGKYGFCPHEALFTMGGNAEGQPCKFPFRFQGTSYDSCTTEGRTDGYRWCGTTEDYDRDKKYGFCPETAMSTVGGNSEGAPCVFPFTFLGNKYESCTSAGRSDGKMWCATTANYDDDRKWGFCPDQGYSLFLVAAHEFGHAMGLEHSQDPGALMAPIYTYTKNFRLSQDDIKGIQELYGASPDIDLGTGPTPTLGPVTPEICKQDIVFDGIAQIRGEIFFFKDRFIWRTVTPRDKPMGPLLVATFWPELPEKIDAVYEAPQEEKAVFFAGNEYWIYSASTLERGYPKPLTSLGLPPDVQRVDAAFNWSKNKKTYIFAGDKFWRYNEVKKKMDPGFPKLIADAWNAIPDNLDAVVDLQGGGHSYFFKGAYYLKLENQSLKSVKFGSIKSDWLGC
Description: Automated MMP Profiling Assay, MMP-2 fluorogenic. Particulars: for IC50: 96-well automated, P218, read-out: MMP-2 Fluorogenic IC50 (profiling).

T2 sequence (P08254 100-274 limits assumed): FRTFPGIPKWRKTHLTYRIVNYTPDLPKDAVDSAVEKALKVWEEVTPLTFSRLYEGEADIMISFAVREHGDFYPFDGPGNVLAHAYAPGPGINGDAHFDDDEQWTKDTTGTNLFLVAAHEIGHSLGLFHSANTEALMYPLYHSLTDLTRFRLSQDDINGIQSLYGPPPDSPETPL

As for `O=C(O)[C@H]1[C@H](C(=O)c2ccc(-c3ccc(Cl)cc3)cc2)[C@H]2C=C[C@@H]1C2` (relative stereo) [Example 176, Bicyclo[2.2.1]hept-5-ene-2-carboxylic acid, 3-[(4'-chloro[1,1'-biphenyl]-4-yl)carbonyl]-, (2-endo-,3-exo)-], the inhibition at 5 µM against MMP-9 was 24%; against MMP-3, 26%. Further, the concentration for half-maximal inhibition (IC50) on MMP-2 came out at 2000 nM.
With `O=C(O)[C@H]1[C@H](CSc2nc3ccccc3o2)CC[C@@H]1C(=O)c1ccc(-c2ccc(Cl)cc2)cc1` (relative stereo) [Example 384, Cyclopentanecarboxylic acid, 2-[(2-benzoxazolylthio)methyl]-5-[(4'-chloro[1,1'-biphenyl]-4-yl)carbonyl]-, (1α,2β,5β)-], the values for the IC50 against MMP-9, against MMP-3 and at MMP-2 were 167 nM, 129 nM and 78 nM, respectively.
Turning to `O=C(CC(CCSc1ccccc1)C(=O)O)c1ccc(-c2ccc(Cl)cc2)cc1` (stereo not drawn) [Example 426, [1,1'-Biphenyl]-4-butanoic acid, 4'-chloro-γ-oxo-α-[2-(phenylthio)ethyl]-], the figures for the IC50 against MMP-9, on MMP-3 and on MMP-2 were 417 nM, 161 nM and 35 nM, respectively.
On to `CCCCCCOc1ccc(-c2ccc(C(=O)C3CCC=C3C(=O)O)cc2)cc1` (stereo not drawn) [Example 443, 1-Cyclopentene-1-carboxylic acid, 5-[[4'-(hexyloxy)[1,1'-biphenyl]-4-yl]carbonyl]-], for which the inhibition at 5 µM against MMP-9 was found to be 16%; against MMP-3 it was 20%. In addition, on MMP-2, the IC50 was found to be 4610 nM.
`Cc1cccc(C)c1SCC(CC(=O)c1ccc(-c2ccc(Cl)cc2)cc1)C(=O)O` (stereo not drawn) [Example 433, [1,1'-Biphenyl]-4-butanoic acid, 4'-chloro-α-[[(2,6-dimethylphenyl)thio]methyl]-γ-oxo-]: the half-inhibitory concentration (IC50) stood at 130 nM against MMP-9, 103 nM at MMP-3 and 6.2 nM at MMP-2.
For the compound `O=C(O)[C@H]1[C@H](CSc2nc3ccccc3s2)CC[C@@H]1C(=O)c1ccc(-c2ccc(Cl)cc2)cc1` (relative stereo) [Example 375, Cyclopentanecarboxylic acid, 2-[(2-benzothiazolylthio)methyl]-5-[(4'-chloro[1,1'-biphenyl]-4-yl)carbonyl]-, (1α,2β,5β)-], the IC50 came to 146 nM at MMP-9, 116 nM against MMP-3 and 68 nM at MMP-2.
`O=C(C[C@@H](CCCc1ccccc1)C(=O)O)c1ccc(-c2ccc(OCc3ccccc3)cc2)cc1` [Example 101, 4-[4-(4-benzyloxyphenyl)phenyl]-4-oxo-2R-(3-phenylpropyl)butanoic acid]: the inhibition at 5 µM at MMP-9 is 10%; against MMP-3 it was 45%. For the same compound, the IC50 at MMP-2 stood at 3320 nM.
`CCCCCOc1ccc(-c2ccc(C(=O)CC(CCCc3ccccc3)C(=O)O)cc2)cn1` (stereo not drawn) [Example 71, Benzenepentanoic acid, α-[2-oxo-2-[4-[6-(pentyloxy)-3-pyridinyl]phenyl]ethyl]-]: the inhibition at 5 µM on MMP-9 worked out at 24%. The half-inhibitory concentration (IC50) on MMP-3 was 1160 nM; at MMP-2, 969 nM.
For `COCOC[C@@H]1CC[C@H](C(=O)c2ccc(-c3ccc(Cl)cc3)cc2)[C@H]1C(=O)O` (relative stereo) [Example 364], the IC50 was 180 nM on MMP-9, 46 nM at MMP-3 and 40 nM on MMP-2.
On to `O=C(CC(CCc1cccc(I)c1)C(=O)O)c1ccc(-c2ccc(Cl)cc2)cc1` (stereo not drawn) [Example 127, [1,1'-Biphenyl]-4-butanoic acid, 4'-chloro-α[2-(3-iodophenyl)ethyl]-γ-oxo-], for which the figures for the concentration for half-maximal inhibition (IC50) at MMP-9, on MMP-3 and on MMP-2 were 1220 nM, 605 nM and 40 nM, respectively.
For the compound `O=C(O)c1ccc(CCC(CC(=O)c2ccc(-c3ccc(Cl)cc3)cc2)C(=O)O)cc1` (stereo not drawn) [Example 153, [1,1'-Biphenyl]-4-butanoic acid, α-[2-(4-carboxyphenyl)ethyl]-4'-chloro-γ-oxo-], the IC50 against MMP-9 came to 1010 nM; against MMP-3, 594 nM; on MMP-2, 127 nM.
`CCCCCOc1ccc(-c2ccc(C(=O)CC(CCN3C(=O)c4ccccc4C3=O)C(=O)O)cc2)cc1` (stereo not drawn) [Example 272]: the IC50 on MMP-9 is 10.8 nM; against MMP-3 it was 9.2 nM; at MMP-2 it was 2.28 nM.
The matching figures for `O=C(O)c1ccccc1S[C@H]1CC[C@H](C(=O)c2ccc(-c3ccc(Cl)cc3)cc2)[C@H]1C(=O)O` (relative stereo) [Example 301, Benzoic acid, 2-[[2-carboxy-3-[(4'-chloro[1,1'-biphenyl]-4-yl)carbonyl]cyclopentyl]thio]-, [1S-(1α,2α,3β)]-]: 290 nM, 30 nM and 18 nM.
On to `CCCC/C=C\c1ccc(-c2ccc(C(=O)CC(CCCc3ccccc3)C(=O)O)cc2)cc1` (stereo not drawn) [Example 356, [1,1'-Biphenyl]-4-butanoic acid, 4'-(1-hexenyl)-γ-oxo-α-(3-phenylpropyl)-, (Z)-], for which the inhibition at 5 µM came to 14% on MMP-9 and 45% against MMP-3. Also, the IC50 at MMP-2 was 188 nM.
As for `CC(C)(C)c1ccc2c(c1)C(=O)N(CCC(CC(=O)c1ccc(-c3ccc(Cl)cc3)cc1)C(=O)O)C2=O` (stereo not drawn) [Example 414, 2H-Isoindole-2-butanoic acid, α-[2-(4'-chloro[1,1'-biphenyl]-4-yl)-2-oxoethyl]-5-(1,1-dimethylethyl)-1,3-dihydro-1,3-dioxo-], the IC50 on MMP-9 came to 15 nM; on MMP-3, 37 nM; on MMP-2, 79 nM.
Turning to `COCCOCOC[C@@H]1CC[C@H](C(=O)c2ccc(-c3ccc(Cl)cc3)cc2)[C@H]1C(=O)O` (relative stereo) [Example 371, Cyclopentanecarboxylic acid, 2-[(4'-chloro[1,1'-biphenyl]-4-yl)carbonyl]-5-[[(2-methoxyethoxy)methoxy]methyl]-, (1α,2β,5β)-], the IC50 against MMP-9 is 26 nM; against MMP-3 it was 10 nM; at MMP-2, 9.1 nM.
As for `O=C(c1ccc(-c2ccc(Cl)cc2)cc1)[C@@H]1CCN(C(=O)OCc2ccccc2)[C@H]1C(=O)O` [Example 167, 1,2-Pyrrolidinedicarboxylic acid, 3-[(4'-chloro[1,1'-biphenyl]-4-yl)carbonyl],1-(phneylmethyl) ester, (2R-trans)-], the figures for the inhibition at 5 µM against MMP-9, against MMP-3 and against MMP-2 (at 5 μM) were 23%, 18% and 31%, respectively.
Turning to `COC/C=C\c1ccc(-c2ccc(C(=O)CC(CCCc3ccccc3)C(=O)O)cc2)cc1` (stereo not drawn) [Example 354, [1,1'-Biphenyl]-4-butanoic acid, 4'-(3-methoxy-1-propenyl)-γ-oxo-α-(3-phenylpropyl)-, (Z)-], the concentration for half-maximal inhibition (IC50) against MMP-9 was 1710 nM; against MMP-3, 577 nM; on MMP-2, 76 nM.
For `COC(=O)c1ccccc1S[C@@H]1CC[C@@H](C(=O)c2ccc(-c3ccc(Cl)cc3)cc2)[C@@H]1C(=O)O` [Example 300, (1R,2R,5R)-trans-5-[4-(4-chlorophenyl)phenylcarbonyl]-cis-2-(2-methoxycarbonylphenylthio)cyclopentanecarboxylic acid], in that order: above 1250 nM, above 1250 nM and 2500 nM.
`COc1ccc(C(=O)OC[C@@H]2CC[C@H](C(=O)c3ccc(-c4ccc(Cl)cc4)cc3)[C@H]2C(=O)O)cc1` (relative stereo) [Example 383, Benzoic acid, 4-methoxy-, [2-carboxy-3-[(4'-chloro[1,1'-biphenyl]-4-yl)carbonyl]cyclopentyl]methyl ester, (1α,2β,3α)-]: the figures for the IC50 against MMP-9, on MMP-3 and at MMP-2 were 53 nM, 58 nM and 110 nM, respectively.
Turning to `NC(=O)c1ccc(COc2ccc(-c3ccc(C(=O)CC(CCCc4ccccc4)C(=O)O)cc3)cc2)cc1` (stereo not drawn) [Example 112, [1,1'-Biphenyl]-4-butanoic acid, 4'-[[4-(aminocarbonyl)phenyl]methoxy]-γ-oxo-α-(3-phenylpropyl)-], the IC50 at MMP-9 was 884 nM; against MMP-3 it was 30 nM; on MMP-2, 11 nM.
With `O=C(O)[C@H]1[C@H](CON2C(=O)c3ccccc3C2=O)CC[C@@H]1C(=O)c1ccc(-c2ccc(Cl)cc2)cc1` (relative stereo) [Example 389, Cyclopentanecarboxylic acid, 2-[(4'-chloro[1,1'-biphenyl]-4-yl)carbonyl]-5-[[(1,3-dihydro-1,3-dioxo-2H-isoindol-2-yl)oxy]methyl]-, (1α,2β,5β)-], the IC50 worked out at 23 nM against MMP-9, 15 nM on MMP-3 and 6.3 nM at MMP-2.
Consider `COc1cccc(C(=O)OC[C@@H]2CC[C@H](C(=O)c3ccc(-c4ccc(Cl)cc4)cc3)[C@H]2C(=O)O)c1` (relative stereo) [Example 382, Benzoic acid, 3-methoxy-, [2-carboxy-3-[(4'-chloro[1,1'-biphenyl]-4-yl)carbonyl]cyclopentyl]methyl ester, (1α,2β,3α)-], for which the values for the IC50 on MMP-9, against MMP-3 and on MMP-2 were 39 nM, 42 nM and 64 nM, respectively.

The record behind these values is US5789434A, “Derivatives of substituted 4-biarylbutyric acid as matrix metalloprotease inhibitors” (priority 1995, dated 1998).
